Literature values in US6087087A, “Treatment of hemoglobin with nitric oxide” (Yonetani; Takashi, priority 1998, dated 2000).
Read-outs that look alike come from different tables or passages of the source.

Assays:
blood of the rat = conditions: rat treated with nitroglycerin
Hb in rats = conditions: nitroglycerin-induced

Row | Molecule | right shift of the O2 binding curve of blood (blood of the rat) | α-nitrosylHb formed, of the total heme of Hb (Hb in rats) | affinity of NO for Hb relative to CO (Hb (hemoglobin)) | affinity of NO for Hb relative to CO (Hb (hemoglobin); listed as nitric oxide)
1 | O=[N+]([O-])OCC(CO[N+](=O)[O-])O[N+](=O)[O-] [nitroglycerin] | approximately 10 torr | less than 2% | – | –
2 | nitric oxide [NO] | – | – | > 10^3 fold | more than a thousand-fold higher affinity
